Experimental data published in the NIST ThermoML archive (doi:10.1021/acs.jced.5b00820).

Test: refractive index (Na D-line) (dimensionless); xn = mol fraction of the nth substance listed
Settings: 102.2 kPa, Liquid, Standard Abbe refractometry

C[Si](C)(O[Si](C)(C)c1ccccc1)c1ccccc1 [1,3-diphenyltetramethyldisiloxane] + C=C[Si]1(C)O[Si](C)(C=C)O[Si](C)(C=C)O[Si](C)(C=C)O1
refractive index
Settings | 308.15 K | 313.15 K | 318.15 K | 323.15 K | 328.15 K
x1 = 0.0511 | 1.43117 | 1.4288 | 1.42643 | 1.42402 | 1.42168
x1 = 0.1004 | 1.43477 | 1.43241 | 1.43005 | 1.42765 | 1.42534
x1 = 0.1503 | 1.43849 | 1.4361 | 1.43374 | 1.43138 | 1.42904
x1 = 0.2 | 1.44222 | 1.43984 | 1.4375 | 1.43511 | 1.43277
x1 = 0.2537 | 1.4463 | 1.44393 | 1.44162 | 1.43922 | 1.43688
x1 = 0.3001 | 1.4499 | 1.44754 | 1.44521 | 1.44282 | 1.44051
x1 = 0.3507 | 1.45386 | 1.4515 | 1.44918 | 1.44682 | 1.44446
x1 = 0.4002 | 1.4578 | 1.45544 | 1.45312 | 1.45075 | 1.4484
x1 = 0.4503 | 1.46186 | 1.45951 | 1.45719 | 1.45481 | 1.45253
x1 = 0.4999 | 1.4659 | 1.46356 | 1.46122 | 1.45885 | 1.45654
x1 = 0.5501 | 1.47011 | 1.46778 | 1.46545 | 1.46309 | 1.46081
x1 = 0.597 | 1.47406 | 1.47174 | 1.46939 | 1.46705 | 1.46474
x1 = 0.6498 | 1.47861 | 1.47627 | 1.47398 | 1.47166 | 1.46934
x1 = 0.7005 | 1.48302 | 1.48067 | 1.47836 | 1.47601 | 1.47373
x1 = 0.7492 | 1.48734 | 1.48502 | 1.48271 | 1.48037 | 1.47809
x1 = 0.8001 | 1.49193 | 1.48963 | 1.4873 | 1.48499 | 1.48269
x1 = 0.8497 | 1.49647 | 1.49417 | 1.49187 | 1.4896 | 1.48727
x1 = 0.8999 | 1.50106 | 1.49877 | 1.49645 | 1.49415 | 1.4918
x1 = 0.9502 | 1.50586 | 1.50356 | 1.50122 | 1.49894 | 1.49665
x1 = 1 | 1.51066 | 1.50836 | 1.5061 | 1.50381 | 1.5015
